# Measured values as given in article PMC5802278, “Molecular and cellular mechanisms of HIF prolyl hydroxylase inhibitors in clinical trials” (Chemical Science, 2017).
# Read-outs that look alike come from different tables or passages of the source.
# What was measured:
# PHD2 = PHD2 (Homo sapiens, UniProt Q9GZT9); assay: MALDI-TOF MS PHD hydroxylation assay; type: biochemical; settings: 1μM isolated recombinant human PHD2, MALDI-TOF MS
# Procedure: Protocols for in vitro PHD1–3 MALDI-TOF MS hydroxylation assays[30] and for the AlphaScreen histone demethylase assays[44] were as reported.
# Although sharing homologous C-terminal catalytic domains, the N-terminal regions of PHD1–3 vary. […] In vitro inhibition assays of the clinical trial PHD inhibitors (and some of their structurally related analogue) against 1 μM recombinant human PHD1–3 were performed.
# Fig. S11. In vitro PHD isoform selectivity profiling of PHD inhibitors. Inhibition of PHD inhibitors against human PHD125 -3 as assayed by MALDI-TOF MS (the protocol is described in Chan et al. ). Eight concentrations were used to obtained dose-response curve for each compound. Data points presented in the graph are mean with standard deviation, n=3. IC50 […]
# (1 picture or pasted object on this page, not shown here)
# [1] = biological target: PHD2 catalytic domain (residues 181-426) (Homo sapiens, UniProt Q9GZT9); assay: NMR KD measurement (2OG displacement or water relaxation); type: binding; set-up: The catalytic domain of human PHD2 (residues 181-426) was used in all; made in house; settings: water relaxation or 2OG displacement
# Chain of PHD2 catalytic domain (residues 181-426) (Q9GZT9 181-426): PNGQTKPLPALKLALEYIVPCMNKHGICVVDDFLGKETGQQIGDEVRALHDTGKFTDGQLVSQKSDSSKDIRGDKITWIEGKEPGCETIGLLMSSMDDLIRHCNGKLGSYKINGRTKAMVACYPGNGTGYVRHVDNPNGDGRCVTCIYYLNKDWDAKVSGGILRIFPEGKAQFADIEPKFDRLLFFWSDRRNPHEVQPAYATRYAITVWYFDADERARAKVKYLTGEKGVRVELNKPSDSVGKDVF
# Procedure: Water-Ligand Observed Gradient SpectroscopY (wLOGSY) experiments were conducted […]
# Solvent excitation was achieved using a 16 ms 180 degree selective rectangular shape pulse with 100% truncation level and 1000 points (Squa100.1000) set at the H2O frequency. Water suppression was achieved by a 2 ms Sinc (Sinc1.1000) pulse at the H2O frequency.
# 2OG displacement experiments were monitored by CPMG-edited 1H NMR using a Bruker […]
# supplemented with 60 µM Zn(II) and increasing concentrations of the inhibitors from a […]
# (90°x−[τ−180°y−τ−90°y−τ−180°y−τ]n−acq), was applied. Typical experimental parameters were […]
# suppression was achieved by presaturation.
# For 13C-CODD and […] displacement experiments, 1D Clean In-Phase (CLIP) HSQC with selective 13C-inversion displacement experiments were conducted using a Bruker AV700 instrument. 3 mm MATCH NMR tubes were used (Cortecnet). All experiments were […]
# prolyl-ring. 7 The CLIP-HSQC sequence was used for 1D HSQC experiments (without 13C decoupling).8 Relaxation delay was 2s. The 1JCH was set to 160 Hz. A 6.8 ms Q3.1000 180 degree pulse was used and selective irradiation was applied at the selected chemical shift. […]
# Samples were prepared by mixing reaction mixture (1 μL) with α-cyano-4-hydrocinnamic acid (CHCA) solution (water:acetonitrile 1:1) (1 μL). Dose-response was assessed in 8-point […]
# [2] = test system: patients with non-dialysis dependent (NDD) CKD (stage 3a/b, 4, or 5); set-up: method as in ref 33 (a number printed in a supplementary file, which may have a reference list of its own: not looked up in the article's list); settings: starting 450 mg daily, titrated, 20 weeks; cited from earlier work
# [3] = test system: patients with ESRD on haemodialysis and previously with Epoetin Alfa; set-up: method as in ref 38 (a number printed in a supplementary file, which may have a reference list of its own: not looked up in the article's list); settings: TIW, 7 weeks, cited from earlier work
# [4] = test system: patients with ESRD and Hb ≤ 10.0 g/dL; set-up: method as in ref 37 (a number printed in a supplementary file, which may have a reference list of its own: not looked up in the article's list); settings: cited from earlier work
# [5] = test system: NDD-CKD subjects with Hb ≤ 11.0 g/dL; set-up: method as in ref 34 (a number printed in a supplementary file, which may have a reference list of its own: not looked up in the article's list); settings: 4 weeks, cited from earlier work
# [6] = test system: patients with NDD CKD and Hb < 10.0 g/dL; set-up: method as in ref 38 (a number printed in a supplementary file, which may have a reference list of its own: not looked up in the article's list); settings: TIW, 9 weeks, cited from earlier work
# [7] = test system: subjects with non-dialysis CKD stage 3-5 and Hb < 10.5 g/dL; set-up: method as in ref 39 (a number printed in a supplementary file, which may have a reference list of its own: not looked up in the article's list); settings: all Molidustat doses (25, 50, 75 mg daily; 25, 50 mg BID), 16 weeks; cited from earlier work
# [8] = test system: patients with haemodialysis CKD, Hb 9.5-12.0 g/dL; set-up: method as in ref 42 (a number printed in a supplementary file, which may have a reference list of its own: not looked up in the article's list); settings: 5 mg daily, 4 weeks; cited from earlier work
# Chain of PHD2 (Q9GZT9 whole entry): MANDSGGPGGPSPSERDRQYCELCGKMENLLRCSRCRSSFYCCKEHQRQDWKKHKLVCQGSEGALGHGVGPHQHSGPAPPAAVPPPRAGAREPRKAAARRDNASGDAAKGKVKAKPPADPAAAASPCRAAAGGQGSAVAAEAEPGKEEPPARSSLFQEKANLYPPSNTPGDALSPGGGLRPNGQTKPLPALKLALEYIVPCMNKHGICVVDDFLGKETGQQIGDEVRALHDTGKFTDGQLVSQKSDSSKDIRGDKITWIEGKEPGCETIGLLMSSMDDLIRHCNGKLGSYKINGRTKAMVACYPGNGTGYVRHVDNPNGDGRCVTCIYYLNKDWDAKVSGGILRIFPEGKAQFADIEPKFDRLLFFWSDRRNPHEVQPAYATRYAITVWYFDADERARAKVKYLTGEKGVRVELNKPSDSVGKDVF
compound,measurement,setting,value
CC(C)(C)OC(=O)c1ccc(-n2[nH]cc(-n3ccnn3)c2=O)nc1 [IOX4],IC50,PHD2,940 nM
same,KD,[1],sub-μM range
O=C(O)CNC(=O)c1ncc(-c2cccc(Cl)c2)cc1O [Vadadustat],subjects with Hb increase ≥ 1.2 g/dL from baseline or mean Hb ≥ 11.0 g/dL during last 2 weeks of treatment,[2],55%
Cc1nc(C(=O)NCC(=O)O)c(O)c2ccc(Oc3ccccc3)cc12 [FG-4592],Hb levels maintained,[3]; high-dose cohort,100%
same,Hb levels maintained,[3]; low-dose cohort,59.1%
same,Hb levels maintained,[3]; medium-dose cohort,88.9%
same,subjects with Hb increase ≥ 1 g/dL (Hb response) from baseline,"[4]; all Roxadustat treated subjects, 12 weeks",96%
same,median time to Hb response,[4]; each cohort,3 weeks
same,subjects with Hb increase ≥ 1 g/dL from baseline,[5]; 0.7 mg/kg BIW,30%
same,subjects with Hb increase ≥ 1 g/dL from baseline,[5]; 0.7 mg/kg TIW,58%
same,subjects with Hb increase ≥ 1 g/dL from baseline,[5]; 1.0 mg/kg BIW,60%
same,subjects with Hb increase ≥ 1 g/dL from baseline,[5]; 1.0 mg/kg TIW,40%
same,subjects with Hb increase ≥ 1 g/dL from baseline,[5]; 1.5 mg/kg BIW,80%
same,subjects with Hb increase ≥ 1 g/dL from baseline,[5]; 1.5 mg/kg TIW,91%
same,subjects with Hb increase ≥ 1 g/dL from baseline,[5]; 2.0 mg/kg BIW,100%
same,subjects with Hb increase ≥ 1 g/dL from baseline,[5]; 2.0 mg/kg TIW,100%
same,subjects with Hb increase ≥ 1 g/dL from baseline,[6]; high-dose cohort,87.1%
same,subjects with Hb increase ≥ 1 g/dL from baseline,[6]; low-dose cohort,80%
O=c1c(-n2ccnn2)c[nH]n1-c1cc(N2CCOCC2)ncn1 [Molidustat],Hb increase,[7],at least 1.14 g/dL
same,IC50,PHD2,1850 nM
same,KD,[1],sub-μM range
O=C(O)CNC(=O)C1C(=O)N(C2CCCCC2)C(=O)N(C2CCCCC2)C1=O [GSK1278863],Hb level maintenance after switch from rhEPO,[8],maintained
